According to ChEMBL document CHEMBL3132858, “6-Alkyl-, 6-aryl- or 6-hetaryl-7-deazapurine ribonucleosides as inhibitors of human or MTB adenosine kinase and potential antimycobacterial agents” (Medchemcomm, 2013):
Active and inactive are the calls of the source. The calls are words filed in the database; no cut-off is given here.

What was measured:
[1] = target: Adenosine kinase (Mycobacterium tuberculosis (strain CDC 1551 / Oshkosh)) (UniProt P9WID4); experiment: Activity of Mycobacterium tuberculosis ADK assessed as compound conversion to 5'-phosphate form incubated at 37 degC for 20 mins by HPLC method
Sequence of Adenosine kinase (Mycobacterium tuberculosis (strain CDC 1551 / Oshkosh)) (P9WID4 2-324 limits assumed): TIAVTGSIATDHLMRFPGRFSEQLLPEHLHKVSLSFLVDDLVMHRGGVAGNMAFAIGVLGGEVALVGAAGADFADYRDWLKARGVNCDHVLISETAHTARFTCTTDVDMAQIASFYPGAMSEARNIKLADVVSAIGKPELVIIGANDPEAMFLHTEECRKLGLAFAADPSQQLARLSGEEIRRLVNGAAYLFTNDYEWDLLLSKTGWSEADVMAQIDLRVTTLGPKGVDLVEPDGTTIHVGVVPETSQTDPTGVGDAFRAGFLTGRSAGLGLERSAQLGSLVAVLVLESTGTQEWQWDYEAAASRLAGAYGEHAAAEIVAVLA

Adenosine kinase [2] = target: Adenosine kinase (Mycobacterium tuberculosis (strain CDC 1551 / Oshkosh), UniProt P9WID4); experiment: Inhibition of Mycobacterium tuberculosis ADK using [3H]-adenosine by scintillation counting method
Sequence of Adenosine kinase (Mycobacterium tuberculosis (strain CDC 1551 / Oshkosh), UniProt P9WID4) (P9WID4 whole entry): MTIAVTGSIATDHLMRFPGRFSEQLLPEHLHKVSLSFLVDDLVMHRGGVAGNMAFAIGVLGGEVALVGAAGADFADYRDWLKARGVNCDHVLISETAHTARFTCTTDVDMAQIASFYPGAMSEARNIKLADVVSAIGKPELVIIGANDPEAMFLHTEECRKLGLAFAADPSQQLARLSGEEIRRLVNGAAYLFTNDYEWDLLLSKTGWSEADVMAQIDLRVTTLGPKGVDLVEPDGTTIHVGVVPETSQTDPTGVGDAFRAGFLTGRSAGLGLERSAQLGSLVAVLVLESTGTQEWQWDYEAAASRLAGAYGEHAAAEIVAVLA

Adenosine kinase [3] = target: T1, Adenosine kinase (Homo sapiens, UniProt P55263); experiment: Inhibition of human ADK using [3H]-adenosine by scintillation counting method
Target sequence in this assay (P55263 whole entry): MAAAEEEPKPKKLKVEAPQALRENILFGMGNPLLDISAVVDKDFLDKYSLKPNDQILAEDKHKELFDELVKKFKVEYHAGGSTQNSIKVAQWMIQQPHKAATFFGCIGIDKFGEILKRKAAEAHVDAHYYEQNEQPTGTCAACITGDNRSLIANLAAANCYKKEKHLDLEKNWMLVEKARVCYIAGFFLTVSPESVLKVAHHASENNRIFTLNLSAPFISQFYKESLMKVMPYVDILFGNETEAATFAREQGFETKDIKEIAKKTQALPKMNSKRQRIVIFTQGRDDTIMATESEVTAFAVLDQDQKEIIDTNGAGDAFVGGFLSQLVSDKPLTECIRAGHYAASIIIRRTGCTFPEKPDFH

Adenosine kinase [4] = target: T1, Adenosine kinase; experiment: Activity of human ADK assessed as compound conversion to 5'-phosphate form incubated at 37 degC for 20 mins by HPLC method; parameters: concentration or dose not given beside the values
Target sequence in this assay (P55263 2-362 limits assumed): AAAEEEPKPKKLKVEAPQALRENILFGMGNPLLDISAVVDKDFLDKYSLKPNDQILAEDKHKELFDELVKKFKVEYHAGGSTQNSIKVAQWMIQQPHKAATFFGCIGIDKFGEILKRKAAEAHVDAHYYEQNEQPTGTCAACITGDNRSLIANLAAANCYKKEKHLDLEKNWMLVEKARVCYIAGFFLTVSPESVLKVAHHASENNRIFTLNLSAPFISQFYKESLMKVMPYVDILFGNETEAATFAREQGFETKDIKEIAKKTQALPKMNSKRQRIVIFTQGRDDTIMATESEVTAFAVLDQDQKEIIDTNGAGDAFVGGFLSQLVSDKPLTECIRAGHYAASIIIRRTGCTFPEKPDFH

[5] = Cytotoxicity against human BJ cells after 72 hrs by MTT assay; type: cell-based
[6] = Cytotoxicity against human MRC5 cells after 72 hrs by MTT assay; type: cell-based

SMILES | Activity [1] | IC50 (Adenosine kinase [2]) | IC50 (Adenosine kinase [3]) | Activity (Adenosine kinase [4]) | CC50 at 72 h [5] | CC50 at 72 h [6]
OC[C@H]1O[C@@H](n2ccc3c(-c4ccco4)ncnc32)[C@H](O)[C@@H]1O | inactive | 320 nM | 1300 nM | 56% | 230 nM | 11800 nM
OC[C@H]1O[C@@H](n2cc(F)c3c(-c4cc[nH]c4)ncnc32)[C@H](O)[C@@H]1O | inactive | 400 nM | > 10000 nM | 97% | 2020 nM | 48900 nM
OC[C@H]1O[C@@H](n2cc(F)c3c(-c4cccs4)ncnc32)[C@H](O)[C@@H]1O | inactive | 35 nM | 1100 nM | 52% | 170 nM | 47200 nM
OC[C@H]1O[C@@H](n2cc(F)c3c(-c4ccc[nH]4)ncnc32)[C@H](O)[C@@H]1O | inactive | 70 nM | > 10000 nM | 76% | 2990 nM | 44400 nM
OC[C@H]1O[C@@H](n2cc(Cl)c3c(-c4ccccc4)ncnc32)[C@H](O)[C@@H]1O | inactive | 220 nM | > 10000 nM | 29% | 44500 nM | > 50000 nM
OC[C@H]1O[C@@H](n2cc(Cl)c3c(-c4ccsc4)ncnc32)[C@H](O)[C@@H]1O | inactive | 250 nM | > 10000 nM | 97% | 1720 nM | > 50000 nM
OC[C@H]1O[C@@H](n2ccc3c(-c4ccc(F)cc4)ncnc32)[C@H](O)[C@@H]1O | inactive | 80 nM | > 10000 nM | 17% | > 50000 nM | > 50000 nM
OC[C@H]1O[C@@H](n2ccc3c(-c4cc[nH]c4)ncnc32)[C@H](O)[C@@H]1O | inactive | 300 nM | > 10000 nM | 70% | 1870 nM | 40200 nM
OC[C@H]1O[C@@H](n2ccc3c(-c4ccn[nH]4)ncnc32)[C@H](O)[C@@H]1O | inactive | 59 nM | > 20000 nM | 31% | 43900 nM | 1160 nM
OC[C@H]1O[C@@H](n2ccc3c(-c4ccoc4)ncnc32)[C@H](O)[C@@H]1O | inactive | 320 nM | > 10000 nM | 32% | 1200 nM | 45400 nM
OC[C@H]1O[C@@H](n2ccc3c(-c4ccc[se]4)ncnc32)[C@H](O)[C@@H]1O | inactive | 30 nM | > 10000 nM | 43% | 1520 nM | > 50000 nM
OC[C@H]1O[C@@H](n2cc(Cl)c3c(-c4ccoc4)ncnc32)[C@H](O)[C@@H]1O | inactive | 300 nM | 3400 nM | 100% | 21600 nM | > 50000 nM
OC[C@H]1O[C@@H](n2cc(Cl)c3c(-c4cccs4)ncnc32)[C@H](O)[C@@H]1O | inactive | 70 nM | 1200 nM | 100% | 4970 nM | > 50000 nM
OC[C@H]1O[C@@H](n2cc(F)c3c(-c4ccsc4)ncnc32)[C@H](O)[C@@H]1O | inactive | 63 nM | > 10000 nM | 51% | 620 nM | 50000 nM
OC[C@H]1O[C@@H](n2ccc3c(-c4ccc[nH]4)ncnc32)[C@H](O)[C@@H]1O | inactive | 73 nM | > 10000 nM | 40% | > 50000 nM | > 50000 nM
OC[C@H]1O[C@@H](n2ccc3c(-c4cn[nH]c4)ncnc32)[C@H](O)[C@@H]1O | inactive | 670 nM | > 20000 nM | 7% | 42100 nM | > 50000 nM
OC[C@H]1O[C@@H](n2ccc3c(-c4ccccn4)ncnc32)[C@H](O)[C@@H]1O | inactive | 120 nM | > 10000 nM | 39% | 1740 nM | > 50000 nM
